Results as given in the supplement of paper PMC4862054.

What follows are molecules tested on DU-4475 (assay: drug sensitivity score (DSS), CellTox Green (DSS (AUC-based score)); higher = stronger drug effect (viability inhibition or cytotoxicity); extreme values may be limits of the assay). Conditions: incubation time: 72 h.
Outline: (§1)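 Breast cancer cell lines (20 µl suspension) were seeded into 384-well plates holding compound at 5 concentrations in 10-fold steps over a compound-specific 10,000-fold range, then incubated 72 h. CellTox Green fluorescence (485/520 nm) was read first, then CellTiter-Glo luminescence after 10 min at room temperature. Each plate was normalised to 0.1 % DMSO and a positive kill control. The drug sensitivity score was calculated from the area under the fitted dose-response curve.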

**Q.** For O=C(CCBr)N1CCN(C(=O)CCBr)CC1 [Pipobroman], which drug sensitivity score is on record?
**A.** 0

**Q.** Which drug sensitivity score does the source give for c1cc(CN2CCCNCCNCCCNCC2)ccc1CN1CCCNCCNCCCNCC1 [Plerixafor] here?
**A.** 0

**Q.** Which drug sensitivity score does the source give for C[C@]12C=CC(=O)C=C1CC[C@@H]1[C@@H]2[C@@H](O)C[C@@]2(C)[C@H]1CC[C@]2(O)C(=O)CO [Prednisolone] here?
**A.** 0

**Q.** With CCN(CC)CCNC(=O)c1c(C)[nH]c(/C=C2\C(=O)Nc3ccc(F)cc32)c1C [Sunitinib] as the molecule, how does the drug sensitivity score read?
**A.** 0

**Q.** For CC[C@@]1(O)C(=O)OCc2c1cc1n(c2=O)Cc2cc3c(CN(C)C)c(O)ccc3nc2-1 [Topotecan], which drug sensitivity score is on record?
**A.** 0

Each molecule was assayed on HCC1599 in the same assay as above. Conditions: incubation time: 72 h.
Outline: as §1

**Q.** Which drug sensitivity score does the source give for Nc1cccc2c1CN(C1CCC(=O)NC1=O)C2=O (stereo not given) [Lenalidomide] here?
**A.** 0

**Q.** For C[C@]12O[C@H](C[C@]1(O)CO)n1c3ccccc3c3c4c(c5c6ccccc6n2c5c31)CNC4=O [Lestaurtinib], which drug sensitivity score is on record?
**A.** 4.55

**Q.** With O=C1c2c(O)ccc(O)c2C(=O)c2c(NCCNCCO)ccc(NCCNCCO)c21 [Mitoxantrone] as the molecule, how does the drug sensitivity score read?
**A.** 0

**Q.** How did the drug sensitivity score turn out when Nc1ccccc1NC(=O)c1ccc(CNc2nccc(-c3cccnc3)n2)cc1 [Mocetinostat] was run?
**A.** 1.87

**Q.** For Cc1ccc(Nc2nccc(N(C)c3ccc4c(C)n(C)nc4c3)n2)cc1S(N)(=O)=O [Pazopanib], which drug sensitivity score is on record?
**A.** 0

**Q.** How did the drug sensitivity score turn out when O=C(CCBr)N1CCN(C(=O)CCBr)CC1 [Pipobroman] was run?
**A.** 0

**Q.** c1cc(CN2CCCNCCNCCCNCC2)ccc1CN1CCCNCCNCCCNCC1 [Plerixafor] was tested. Which drug sensitivity score did it give?
**A.** 0

**Q.** Which drug sensitivity score does the source give for C[C@]12C=CC(=O)C=C1CC[C@@H]1[C@@H]2[C@@H](O)C[C@@]2(C)[C@H]1CC[C@]2(O)C(=O)CO [Prednisolone] here?
**A.** 0

**Q.** How did the drug sensitivity score turn out when CCN(CC)CCNC(=O)c1c(C)[nH]c(/C=C2\C(=O)Nc3ccc(F)cc32)c1C [Sunitinib] was run?
**A.** 0

**Q.** CC[C@@]1(O)C(=O)OCc2c1cc1n(c2=O)Cc2cc3c(CN(C)C)c(O)ccc3nc2-1 [Topotecan] was tested. Which drug sensitivity score did it give?
**A.** 2.71

These molecules were tested on Hs578T in the same assay as above. Conditions: incubation time: 72 h.
Outline: as §1

**Q.** How did the drug sensitivity score turn out when Nc1cccc2c1CN(C1CCC(=O)NC1=O)C2=O (stereo not given) [Lenalidomide] was run?
**A.** 0

**Q.** For C[C@]12O[C@H](C[C@]1(O)CO)n1c3ccccc3c3c4c(c5c6ccccc6n2c5c31)CNC4=O [Lestaurtinib], which drug sensitivity score is on record?
**A.** 4.21

**Q.** How did the drug sensitivity score turn out when O=C1c2c(O)ccc(O)c2C(=O)c2c(NCCNCCO)ccc(NCCNCCO)c21 [Mitoxantrone] was run?
**A.** 0

**Q.** With Nc1ccccc1NC(=O)c1ccc(CNc2nccc(-c3cccnc3)n2)cc1 [Mocetinostat] as the molecule, how does the drug sensitivity score read?
**A.** 7.44

**Q.** With Cc1ccc(Nc2nccc(N(C)c3ccc4c(C)n(C)nc4c3)n2)cc1S(N)(=O)=O [Pazopanib] as the molecule, how does the drug sensitivity score read?
**A.** 0

**Q.** How did the drug sensitivity score turn out when O=C(CCBr)N1CCN(C(=O)CCBr)CC1 [Pipobroman] was run?
**A.** 0

**Q.** How did the drug sensitivity score turn out when c1cc(CN2CCCNCCNCCCNCC2)ccc1CN1CCCNCCNCCCNCC1 [Plerixafor] was run?
**A.** 0

**Q.** For C[C@]12C=CC(=O)C=C1CC[C@@H]1[C@@H]2[C@@H](O)C[C@@]2(C)[C@H]1CC[C@]2(O)C(=O)CO [Prednisolone], which drug sensitivity score is on record?
**A.** 0

**Q.** How did the drug sensitivity score turn out when CCN(CC)CCNC(=O)c1c(C)[nH]c(/C=C2\C(=O)Nc3ccc(F)cc32)c1C [Sunitinib] was run?
**A.** 2.45

**Q.** With CC[C@@]1(O)C(=O)OCc2c1cc1n(c2=O)Cc2cc3c(CN(C)C)c(O)ccc3nc2-1 [Topotecan] as the molecule, how does the drug sensitivity score read?
**A.** 0

Each molecule was assayed on MDA-MB-231 in the same assay as above. Conditions: incubation time: 72 h.
Outline: as §1

**Q.** How did the drug sensitivity score turn out when Nc1cccc2c1CN(C1CCC(=O)NC1=O)C2=O (stereo not given) [Lenalidomide] was run?
**A.** 0

**Q.** For C[C@]12O[C@H](C[C@]1(O)CO)n1c3ccccc3c3c4c(c5c6ccccc6n2c5c31)CNC4=O [Lestaurtinib], which drug sensitivity score is on record?
**A.** 0.0124

**Q.** O=C1c2c(O)ccc(O)c2C(=O)c2c(NCCNCCO)ccc(NCCNCCO)c21 [Mitoxantrone] was tested. Which drug sensitivity score did it give?
**A.** 0

**Q.** Nc1ccccc1NC(=O)c1ccc(CNc2nccc(-c3cccnc3)n2)cc1 [Mocetinostat] was tested. Which drug sensitivity score did it give?
**A.** 8.8

**Q.** With Cc1ccc(Nc2nccc(N(C)c3ccc4c(C)n(C)nc4c3)n2)cc1S(N)(=O)=O [Pazopanib] as the molecule, how does the drug sensitivity score read?
**A.** 0

**Q.** How did the drug sensitivity score turn out when O=C(CCBr)N1CCN(C(=O)CCBr)CC1 [Pipobroman] was run?
**A.** 0

**Q.** How did the drug sensitivity score turn out when c1cc(CN2CCCNCCNCCCNCC2)ccc1CN1CCCNCCNCCCNCC1 [Plerixafor] was run?
**A.** 0

**Q.** C[C@]12C=CC(=O)C=C1CC[C@@H]1[C@@H]2[C@@H](O)C[C@@]2(C)[C@H]1CC[C@]2(O)C(=O)CO [Prednisolone] was tested. Which drug sensitivity score did it give?
**A.** 0

**Q.** CCN(CC)CCNC(=O)c1c(C)[nH]c(/C=C2\C(=O)Nc3ccc(F)cc32)c1C [Sunitinib] was tested. Which drug sensitivity score did it give?
**A.** 0

**Q.** For CC[C@@]1(O)C(=O)OCc2c1cc1n(c2=O)Cc2cc3c(CN(C)C)c(O)ccc3nc2-1 [Topotecan], which drug sensitivity score is on record?
**A.** 10.2

Each molecule was assayed on MDA-MB-453 in the same assay as above. Conditions: incubation time: 72 h.
Outline: as §1

**Q.** With Nc1cccc2c1CN(C1CCC(=O)NC1=O)C2=O (stereo not given) [Lenalidomide] as the molecule, how does the drug sensitivity score read?
**A.** 0

**Q.** C[C@]12O[C@H](C[C@]1(O)CO)n1c3ccccc3c3c4c(c5c6ccccc6n2c5c31)CNC4=O [Lestaurtinib] was tested. Which drug sensitivity score did it give?
**A.** 0

**Q.** With O=C1c2c(O)ccc(O)c2C(=O)c2c(NCCNCCO)ccc(NCCNCCO)c21 [Mitoxantrone] as the molecule, how does the drug sensitivity score read?
**A.** 0

**Q.** Nc1ccccc1NC(=O)c1ccc(CNc2nccc(-c3cccnc3)n2)cc1 [Mocetinostat] was tested. Which drug sensitivity score did it give?
**A.** 0

**Q.** With Cc1ccc(Nc2nccc(N(C)c3ccc4c(C)n(C)nc4c3)n2)cc1S(N)(=O)=O [Pazopanib] as the molecule, how does the drug sensitivity score read?
**A.** 0

**Q.** O=C(CCBr)N1CCN(C(=O)CCBr)CC1 [Pipobroman] was tested. Which drug sensitivity score did it give?
**A.** 0

**Q.** With c1cc(CN2CCCNCCNCCCNCC2)ccc1CN1CCCNCCNCCCNCC1 [Plerixafor] as the molecule, how does the drug sensitivity score read?
**A.** 0

**Q.** With C[C@]12C=CC(=O)C=C1CC[C@@H]1[C@@H]2[C@@H](O)C[C@@]2(C)[C@H]1CC[C@]2(O)C(=O)CO [Prednisolone] as the molecule, how does the drug sensitivity score read?
**A.** 0

**Q.** CCN(CC)CCNC(=O)c1c(C)[nH]c(/C=C2\C(=O)Nc3ccc(F)cc32)c1C [Sunitinib] was tested. Which drug sensitivity score did it give?
**A.** 0

**Q.** For CC[C@@]1(O)C(=O)OCc2c1cc1n(c2=O)Cc2cc3c(CN(C)C)c(O)ccc3nc2-1 [Topotecan], which drug sensitivity score is on record?
**A.** 0

Each molecule was assayed on MDA-MB-468 in the same assay as above. Conditions: incubation time: 72 h.
Outline: as §1

**Q.** Which drug sensitivity score does the source give for Nc1cccc2c1CN(C1CCC(=O)NC1=O)C2=O (stereo not given) [Lenalidomide] here?
**A.** 0

**Q.** C[C@]12O[C@H](C[C@]1(O)CO)n1c3ccccc3c3c4c(c5c6ccccc6n2c5c31)CNC4=O [Lestaurtinib] was tested. Which drug sensitivity score did it give?
**A.** 0

**Q.** How did the drug sensitivity score turn out when O=C1c2c(O)ccc(O)c2C(=O)c2c(NCCNCCO)ccc(NCCNCCO)c21 [Mitoxantrone] was run?
**A.** 0

**Q.** For Nc1ccccc1NC(=O)c1ccc(CNc2nccc(-c3cccnc3)n2)cc1 [Mocetinostat], which drug sensitivity score is on record?
**A.** 10.9

**Q.** With Cc1ccc(Nc2nccc(N(C)c3ccc4c(C)n(C)nc4c3)n2)cc1S(N)(=O)=O [Pazopanib] as the molecule, how does the drug sensitivity score read?
**A.** 0

**Q.** With O=C(CCBr)N1CCN(C(=O)CCBr)CC1 [Pipobroman] as the molecule, how does the drug sensitivity score read?
**A.** 0

**Q.** How did the drug sensitivity score turn out when c1cc(CN2CCCNCCNCCCNCC2)ccc1CN1CCCNCCNCCCNCC1 [Plerixafor] was run?
**A.** 4.79

**Q.** C[C@]12C=CC(=O)C=C1CC[C@@H]1[C@@H]2[C@@H](O)C[C@@]2(C)[C@H]1CC[C@]2(O)C(=O)CO [Prednisolone] was tested. Which drug sensitivity score did it give?
**A.** 0

**Q.** With CCN(CC)CCNC(=O)c1c(C)[nH]c(/C=C2\C(=O)Nc3ccc(F)cc32)c1C [Sunitinib] as the molecule, how does the drug sensitivity score read?
**A.** 0

**Q.** How did the drug sensitivity score turn out when CC[C@@]1(O)C(=O)OCc2c1cc1n(c2=O)Cc2cc3c(CN(C)C)c(O)ccc3nc2-1 [Topotecan] was run?
**A.** 8.87

Each molecule was assayed on MFM-223 in the same assay as above. Conditions: incubation time: 72 h.
Outline: as §1

**Q.** With Nc1cccc2c1CN(C1CCC(=O)NC1=O)C2=O (stereo not given) [Lenalidomide] as the molecule, how does the drug sensitivity score read?
**A.** 0

**Q.** For C[C@]12O[C@H](C[C@]1(O)CO)n1c3ccccc3c3c4c(c5c6ccccc6n2c5c31)CNC4=O [Lestaurtinib], which drug sensitivity score is on record?
**A.** 0

**Q.** How did the drug sensitivity score turn out when O=C1c2c(O)ccc(O)c2C(=O)c2c(NCCNCCO)ccc(NCCNCCO)c21 [Mitoxantrone] was run?
**A.** 0

**Q.** With Nc1ccccc1NC(=O)c1ccc(CNc2nccc(-c3cccnc3)n2)cc1 [Mocetinostat] as the molecule, how does the drug sensitivity score read?
**A.** 0

**Q.** Cc1ccc(Nc2nccc(N(C)c3ccc4c(C)n(C)nc4c3)n2)cc1S(N)(=O)=O [Pazopanib] was tested. Which drug sensitivity score did it give?
**A.** 0

**Q.** Which drug sensitivity score does the source give for O=C(CCBr)N1CCN(C(=O)CCBr)CC1 [Pipobroman] here?
**A.** 0

**Q.** With c1cc(CN2CCCNCCNCCCNCC2)ccc1CN1CCCNCCNCCCNCC1 [Plerixafor] as the molecule, how does the drug sensitivity score read?
**A.** 0

**Q.** C[C@]12C=CC(=O)C=C1CC[C@@H]1[C@@H]2[C@@H](O)C[C@@]2(C)[C@H]1CC[C@]2(O)C(=O)CO [Prednisolone] was tested. Which drug sensitivity score did it give?
**A.** 0

**Q.** Which drug sensitivity score does the source give for CCN(CC)CCNC(=O)c1c(C)[nH]c(/C=C2\C(=O)Nc3ccc(F)cc32)c1C [Sunitinib] here?
**A.** 0

**Q.** CC[C@@]1(O)C(=O)OCc2c1cc1n(c2=O)Cc2cc3c(CN(C)C)c(O)ccc3nc2-1 [Topotecan] was tested. Which drug sensitivity score did it give?
**A.** 2.66
